Source: patent US20060069132A1, “Azolecarboxamide herbicides” (priority 2004, published 2006)

How the values were obtained:
morningglory [1] = assay: Test B pre-/postemergence herbicide test; assay type: in vivo, Ipomoea coccinea; conditions: for Morningglory plant response rating: postemergence
Outline: (§1)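 Herbicidal effect was judged by eye on a 0–100 scale after plants stood 13 to 15 days in the greenhouse following pre- or postemergence treatment with surfactant-containing formulations.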

rice [2] = assay: Test B flooded paddy test; assay type: in vivo, Oryza sativa; conditions: 1000 g ai/ha, scale 0 to 100 (0 no effect, 100 complete control)
Outline: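 Each value is a visual 0–100 response rating taken against controls 13 to 15 days after treatment in the greenhouse. Plants received formulated chemical postemergence at the 1- to 4-leaf stage or, in flooded paddy, at the 2-leaf stage.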

giant foxtail [3] = assay: Test B pre-/postemergence herbicide test; assay type: in vivo, Setaria faberi; conditions: for Foxtail, Giant plant response rating: postemergence
Outline: (§2)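 Evaluation is visual, comparing treated with control plants on a scale where 0 means no effect and 100 means full control. Treatments were preemergence, or postemergence on seedlings 2–18 cm tall, and held 13–15 days in the greenhouse.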

pigweed = assay: Test B pre-/postemergence herbicide test; assay type: in vivo, Amaranthus retroflexus; conditions: for Pigweed plant response rating: postemergence
Outline: as §2

giant foxtail [4] = assay: Test A pre-/postemergence herbicide test; assay type: in vivo, Setaria faberi
Outline: (§3)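 Both application timings were run together: directed soil spray over freshly planted seeds in sandy loam, and runoff spray onto 2–10 cm seedlings. Evaluation after ~10 days in greenhouse used a 0–100 visual scale versus untreated controls.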

lambsquarters = assay: Test B pre-/postemergence herbicide test; assay type: in vivo, Chenopodium album; conditions: for Lambsquarters plant response rating: postemergence
Outline: as §2

blackgrass = assay: Test B postemergence herbicide test; assay type: in vivo, Alopecurus myosuroides; conditions: postemergence
Outline: (§4)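 Treated at 2-leaf (paddy) or 1–4-leaf, 2–18 cm (postemergence); greenhouse 13–15 d; visual score vs control, 0 none to 100 complete control; dash = not tested.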

Surinam grass = assay: Test B pre-/postemergence herbicide test; assay type: in vivo, Urochloa decumbens; conditions: for Surinam Grass plant response rating: postemergence
Outline: as §2

velvetleaf [5] = assay: Test B pre-/postemergence herbicide test; assay type: in vivo, Abutilon theophrasti; conditions: for Velvetleaf plant response rating: postemergence
Outline: as §2

wild oat = assay: Test B postemergence herbicide test; assay type: in vivo, Avena fatua; conditions: postemergence
Outline: (§5)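 Formulated test chemicals went onto postemergence plants measuring 2 to 18 cm, at one to four leaves. For the paddy assay, species had reached two leaves. Scoring took place 13–15 days later by eye, relative to untreated plants, using 0 for no effect up to 100 for full control.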

cocklebur = assay: Test B pre-/postemergence herbicide test; assay type: in vivo, Xanthium strumarium; conditions: for Cocklebur plant response rating: postemergence
Outline: as §1

morningglory [6] = assay: Test A pre-/postemergence herbicide test; assay type: in vivo, Ipomoea spp.
Outline: as §3

rice [7] = assay: Test B pre-/postemergence herbicide test; assay type: in vivo, Oryza sativa; conditions: preemergence
Outline: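 Plants compared with untreated controls 13–15 days post-treatment and given a visual 0–100 injury score. Applications: preemergence to seeds; postemergence at 1- to 4-leaf (2–18 cm); paddy species flooded, 2-leaf stage. Vehicle non-phytotoxic, surfactant included.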

ducksalad = assay: Test B flooded paddy test; assay type: in vivo, Heteranthera limosa; conditions: 1000 g ai/ha, scale 0 to 100 (0 no effect, 100 complete control)
Outline: as §4

velvetleaf [8] = assay: Test A pre-/postemergence herbicide test; assay type: in vivo, Abutilon theophrasti
Outline: as §3

corn = assay: Test B pre-/postemergence herbicide test; assay type: in vivo, Zea mays; conditions: for Corn plant response rating: postemergence
Outline: as §2

large crabgrass [9] = assay: Test B pre-/postemergence herbicide test; assay type: in vivo, Digitaria sanguinalis; conditions: for Crabgrass, Large plant response rating: postemergence
Outline: as §2

wheat = assay: Test B postemergence herbicide test; assay type: in vivo, Triticum aestivum; parameters: key to Wheat plant response rating: 0 = no effect, 100 = complete control; conditions: postemergence
Outline: as §5

large crabgrass [10] = assay: Test A pre-/postemergence herbicide test; assay type: in vivo, Digitaria sanguinalis
Outline: as §3

[11] = system: small flower umbrella sedge; assay: Test B flooded paddy test; assay type: in vivo, Cyperus difformis; conditions: 1000 g ai/ha, scale 0 to 100 (0 no effect, 100 complete control)
Outline: as §4

barnyardgrass [12] = assay: Test B pre-/postemergence herbicide test; assay type: in vivo, Echinochloa crus-galli; conditions: for Barnyardgrass plant response rating: postemergence
Outline: as §1

barnyardgrass [13] = assay: Test B flooded paddy test; assay type: in vivo, Echinochloa crus-galli; conditions: 1000 g ai/ha, scale 0 to 100 (0 no effect, 100 complete control)
Outline: as §4

redroot pigweed = assay: Test A pre-/postemergence herbicide test; assay type: in vivo, Amaranthus retroflexus
Outline: as §3

barnyardgrass [14] = assay: Test A pre-/postemergence herbicide test; assay type: in vivo, Echinochloa crus-galli
Outline: as §3

[15] = 125 g ai/ha, 0 is no effect, 100 is complete control, preemergence
[16] = 125 g ai/ha, visual rating, scale 0 (no effect) to 100 (complete control)
[17] = 500 g ai/ha, visual rating, 0 = no effect, 100 = complete control, preemergence
[18] = 500 g ai/ha, scale 0 to 100, 0 is no effect, 100 is complete control
[19] = Postemergence, 500 g ai/ha, 0 to 100 scale, 0 no effect, 100 complete control
[20] = Postemergence, 2000 g ai/ha, 0 to 100 scale, 0 no effect, 100 complete control
[21] = Preemergence, 2000 g ai/ha, visual rating, 0 to 100 scale (0 no effect, 100 complete control)
[22] = preemergence, 500 g ai/ha, visual injury, 0 to 100 scale (0 no effect, 100 complete control)

Cn1nc(C(C)(C)C)cc1C(=O)Nc1cccc(C(=O)NC2CC2)n1 [Compound 315]
Plant response rating (0 to 100 scale), Morningglory (morningglory [1]; [15]): 0
Morningglory plant response rating (morningglory [1]; [16]): 0
Plant response rating, Morningglory (morningglory [1]; [17]): 0
Morningglory plant response rating (morningglory [1]; [18]): 20
Rice plant response rating (rice [2]): 0
Plant response rating (0 to 100 scale), Foxtail, Giant (giant foxtail [3]; [15]): 0
Foxtail, Giant plant response rating (giant foxtail [3]; [16]): 0
Plant response rating, Foxtail, Giant (giant foxtail [3]; [17]): 20
Foxtail, Giant plant response rating (giant foxtail [3]; [18]): 10
Plant response rating (0 to 100 scale), Pigweed (pigweed; [15]): 20
Pigweed plant response rating (pigweed; [16]): 10
Plant response rating, Pigweed (pigweed; [17]): 100
Pigweed plant response rating (pigweed; [18]): 50
Foxtail, Giant plant response rating (giant foxtail [4]; [19]): 0
Plant response rating, Foxtail, Giant (giant foxtail [4]; [20]): 0
Foxtail, Giant plant response rating (giant foxtail [4]; [21]): 10
Foxtail, Giant plant response rating (giant foxtail [4]; [22]): 0
Plant response rating (0 to 100 scale), Lambsquarters (lambsquarters; [15]): 0
Lambsquarters plant response rating (lambsquarters; [16]): 50
Plant response rating, Lambsquarters (lambsquarters; [17]): 80
Lambsquarters plant response rating (lambsquarters; [18]): 60
Blackgrass plant response rating (blackgrass; [16]): 0
Blackgrass plant response rating (blackgrass; [18]): 0
Plant response rating (0 to 100 scale), Surinam Grass (Surinam grass; [15]): 0
Surinam Grass plant response rating (Surinam grass; [16]): 20
Plant response rating, Surinam Grass (Surinam grass; [17]): 10
Surinam Grass plant response rating (Surinam grass; [18]): 20
Plant response rating (0 to 100 scale), Velvetleaf (velvetleaf [5]; [15]): 10
Velvetleaf plant response rating (velvetleaf [5]; [16]): 20
Plant response rating, Velvetleaf (velvetleaf [5]; [17]): 20
Velvetleaf plant response rating (velvetleaf [5]; [18]): 20
Oat, Wild plant response rating (wild oat; [16]): 0
Oat, Wild plant response rating (wild oat; [18]): 10
Plant response rating (0 to 100 scale), Cocklebur (cocklebur; [15]): 0
Cocklebur plant response rating (cocklebur; [16]): 20
Plant response rating, Cocklebur (cocklebur; [17]): 0
Cocklebur plant response rating (cocklebur; [18]): 20
Morningglory plant response rating (morningglory [6]; [19]): 0
Plant response rating, Morningglory (morningglory [6]; [20]): 0
Morningglory plant response rating (morningglory [6]; [21]): 10
Morningglory plant response rating (morningglory [6]; [22]): 5
Plant response rating (0 to 100 scale), Rice (rice [7]; 125 g ai/ha, 0 is no effect, 100 is complete control): 0
Plant response rating, Rice (rice [7]; 500 g ai/ha, visual rating, 0 = no effect, 100 = complete control): 0
Ducksalad plant response rating (ducksalad): 0
Velvetleaf plant response rating (velvetleaf [8]; [19]): 0
Plant response rating, Velvetleaf (velvetleaf [8]; [20]): 0
Velvetleaf plant response rating (velvetleaf [8]; [21]): 30
Velvetleaf plant response rating (velvetleaf [8]; [22]): 10
Plant response rating (0 to 100 scale), Corn (corn; [15]): 0
Corn plant response rating (corn; [16]): 10
Plant response rating, Corn (corn; [17]): 0
Corn plant response rating (corn; [18]): 20
Plant response rating (0 to 100 scale), Crabgrass, Large (large crabgrass [9]; [15]): 0
Crabgrass, Large plant response rating (large crabgrass [9]; [16]): 0
Plant response rating, Crabgrass, Large (large crabgrass [9]; [17]): 20
Crabgrass, Large plant response rating (large crabgrass [9]; [18]): 10
Wheat plant response rating (wheat; [16]): 0
Wheat plant response rating (wheat; [18]): 0
Crabgrass, Large plant response rating (large crabgrass [10]; [19]): 20
Plant response rating, Crabgrass, Large (large crabgrass [10]; [20]): 20
Crabgrass, Large plant response rating (large crabgrass [10]; [21]): 15
Crabgrass, Large plant response rating (large crabgrass [10]; [22]): 5
Sedge, Umbrella plant response rating [11]: 0
Plant response rating (0 to 100 scale), Barnyardgrass (barnyardgrass [12]; [15]): 0
Barnyardgrass plant response rating (barnyardgrass [12]; [16]): 10
Plant response rating, Barnyardgrass (barnyardgrass [12]; [17]): 20
Barnyardgrass plant response rating (barnyardgrass [12]; [18]): 20
Barnyardgrass plant response rating (barnyardgrass [13]): 0
Pigweed plant response rating (redroot pigweed; [19]): 10
Plant response rating, Pigweed (redroot pigweed; [20]): 20
Pigweed plant response rating (redroot pigweed; [21]): 45
Pigweed plant response rating (redroot pigweed; [22]): 15
Barnyardgrass plant response rating (barnyardgrass [14]; [19]): 20
Plant response rating, Barnyardgrass (barnyardgrass [14]; [20]): 20
Barnyardgrass plant response rating (barnyardgrass [14]; [21]): 5
Barnyardgrass plant response rating (barnyardgrass [14]; [22]): 5
